Measured values from patent publication US11098083B2, “Peptide that regulates fat metabolism and method for regulating fat metabolism” (SHENZHEN INSTITUTES OF ADVANCED TECHNOLOGY, priority 2017, dated 2021).
Ends that are not written are not given here.

How the values were obtained:
[1] = test system: wild-type C57BL/6 mice; experiment: intestinal fat (olive oil) absorption in normal mice, i.p. injection of peptide; assay type: in vivo; conditions: FIG. 5
Method: S140: effect of acute gavage of ISAP1 on intestinal fat absorption in normal mice may be studied.
Six-week-old male wild-type C57BL/6 mice may be divided into four groups, three in each group, three out of the four groups of mice may be intestinally perfused with 200 μl sterilized olive oil solution (Sigma), and the other one group of mice may be intestinally perfused with normal saline solution to be a negative control group. After 30 minutes, two groups of the mice treated with sterilized olive oil solution may be i.p. injected with OCN (6 pmol/g) and ISAP1 (6 pmol/g) respectively, and the other one group of the mice treated with sterilized olive oil solution may be i.p. injected with normal saline solution to be a saline control group. Further the mice of the negative control group solution may also be i.p. injected with normal saline solution to be the negative group. The mice of all four groups may be sacrificed 30 minutes later. Small intestine samples may be collected. The small intestine sample may be taken from a duodenum to a caecum, divided into 3 segments of equal length. After washing with pre-cooled normal saline solution, a segment close to the duodenum may be frozen and sliced, stained with oil red O and observed for fat absorption.

[2] = test system: DIO-NAFLD mice; experiment: i.p. injection of ISAP1 in DIO-NAFLD mice: epididymal fat pad; assay type: in vivo, C57BL/6 mice
Excerpt: S110: a diet-induced obesity and nonalcoholic fatty liver disease (DIO-NAFLD) mouse model by HFD feeding may be established.
Thirty specific pathogen free (SPF) level healthy 6-week-old male C57BL/6 mice may be purchased from the Experimental Animal Center of Guangdong Province. A body mass of each mouse may be 18 g to 22 g. The mice may be divided into two groups, housed in a SPF-grade animal facility of SIAT. Six mice may be fed with ND (the ND contains 5% of fat; 53% of carbohydrate; 23% of protein, having total calories of […]) for 12 weeks to be a ND control group, and may be allowed to have food and water ad lib. The other mice may be fed with HFD (the HFD may be D12451, Research Diets, Inc.) for 12 weeks, and may be allowed to have food and water ad lib. Physiological indexes of the mice may be detected. […] In the present embodiment, an average body weight of the DIO-NAFLD mice may be more than 40 g. Comparison of average body weight of the mice of the established model with that of the mice in the ND control group is shown in FIG. 1. The arrow indicates a time point at which the HFD be started.
S121: effect of i.p. injection of ISAP1 on epididymal fat pad may be studied.
When the body weight of the each mouse fed with the HFD is more than 40 g, and when the blood glucose level of the each mouse is above 10 mMol, each DIO-NAFLD mouse may be treated with i.p. injection of ISAP1 for 6 consecutive weeks. The DIO-NAFLD mice may be divided into 4 groups, 6 mice in each group. ISAP1 may be dissolved in normal saline solution containing 0.01% of BSA. A dosage of 20 pmol/g of ISAP1 may be i.p. injected into each DIO-NAFLD mouse in group #1 once a day, and a dosage of 2 pmol/g of ISAP1 may be i.p. injected into each DIO-NAFLD mouse in group #2 once a day. OCN (mouse OCN protein) may be prepared and administered similarly as the ISAP1 at a dosage of 6 pmol/g to each mouse in group #3. The mice in group #4 may be treated with normal saline only as a HFD control group. After 6 weeks, the mice may be euthanized by application of 95% CO2, and epididymal fat pads of 4 mice selected from each group and an epididymal fat pad of a mouse from the ND control group may collected and weighed. Paraffin slices of each epididymal fat pad may be prepared, and an area of the adipocytes may be observed by microscopy.
Statistical analysis may be performed to compare with the HFD control group, wherein *: P<0.05, **: P<0.01, and ***: P<0.001.

[3] = test system: DIO-NAFLD mice; experiment: i.p. injection of ISAP1 in DIO-NAFLD mice: liver fat (appearance, oil red O staining); assay type: in vivo, C57BL/6 mice; conditions: daily i.p. injection 6 weeks
Excerpt: S122: effect of i.p. injection of ISAP1 on the liver may be studied.
In S121, livers may be collected while collecting the adipose tissues, and appearance of the livers may be photographed. A part of liver tissues may be taken for frozen sectioning, stained with oil red O for microscopic observation, and then a same area may be quantitatively analyzed. […] The […] the color is, the higher the fat content is contained.

[4] = test system: DIO-NAFLD mice; experiment: i.p. injection of ISAP1 in DIO-NAFLD mice: liver functions and blood lipids; assay type: in vivo, C57BL/6 mice; conditions: daily i.p. 6 weeks, even at 2 pmol/g, compared with HFD control group, FIG. 4
Excerpt: S123: the effect of i.p. injection of ISAP1 on liver functions and blood lipids in mice may be studied.
In S121, before sacrificing the mice, blood of each mouse may be collected from a tail vein and detected for a level of alanine aminotransferases (ALT), a level of alkaline phosphatases (ALP), a level of aspartate aminotransferases (AST), a serum level of cholesterols, a level of low-density lipoprotein (LDL), and a level of high-density lipoprotein (HDL) using a Roche […] (model cobas 8000) as per manufacturer's instructions.

YLGASVPSPDPLEPT [ISAP1]
mouse intestinal absorption of the olive oil (oil red O-positive area / total area of intestinal villi) ([1]; 6 pmol/g i.p. 30 min after 200 μl olive oil, compared with saline control group): effectively reduce
reduction in olive oil absorption compared with OCN treatment ([1]; 6 pmol/g i.p., OCN 6 pmol/g): even more effective than the OCN treatment
size of the epididymal fat pads ([2]; daily i.p. injection 6 weeks (20 or 2 pmol/g), compared with HFD control group, FIG. 2A): significantly reduce the size
weight (average mass) of the epididymal fat pad ([2]; daily i.p. injection 6 weeks (20 or 2 pmol/g), compared with HFD control group, FIG. 2B): significantly reduce the weight
sizes of adipocytes, H&E staining of epididymal fat pads ([2]; daily i.p. injection 6 weeks, compared with HFD control group, FIG. 2C): significantly reduce sizes of adipocytes
average surface areas of single adipocytes calculated from H&E stained slices ([2]; daily i.p. injection 6 weeks, double-blind, FIG. 2D): significantly reduce the sizes of the adipocytes
proportion of fat in the liver (oil red O staining) ([3]; compared with HFD control group, FIG. 3C): decreased significantly
liver fat accumulation (liver appearance) ([3]; vs HFD+carrier, FIG. 3A): significantly reduce the liver fat accumulation
level of alanine aminotransferases (ALT) in blood [4]: effective in reducing
level of alkaline phosphatases (ALP) in blood [4]: effective in reducing
level of aspartate aminotransferases (AST) in blood [4]: effective in reducing
level of low-density lipoprotein (LDL) [4]: effective in reducing
serum level of cholesterols [4]: effective in reducing
